Data taken from US9221838B2, “Inhibitors of AKT activity” (ALMAC DISCOVERY LIMITED, priority 2009, dated 2015).

Experiments:
Format in all cases: biochemical
[1] = molecular target: T1, AKT2 (Homo sapiens, UniProt P31751); assay: AKT Kinase Assay (IMAP fluorescent polarisation) vs AKT2
T1 construct: purchased SignalChem
Outline: (§1)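 Phosphorylation of FAM-Crosstide detected by IMAP binding and fluorescence polarisation (485/528 nm), with IC50 fitted from % inhibition versus vehicle. Compound was incubated 45 min with enzyme, then reacted 1 h at room temperature with ATP and peptide in Tris/MgCl2/DTT buffer. Dose response had fourteen half-log points.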

[2] = molecular target: T2, AKT1 (Homo sapiens, UniProt P31749); assay: AKT Kinase Assay (IMAP fluorescent polarisation) vs AKT1
T2 construct: purchased SignalChem
T2 sequence (P31749 whole entry): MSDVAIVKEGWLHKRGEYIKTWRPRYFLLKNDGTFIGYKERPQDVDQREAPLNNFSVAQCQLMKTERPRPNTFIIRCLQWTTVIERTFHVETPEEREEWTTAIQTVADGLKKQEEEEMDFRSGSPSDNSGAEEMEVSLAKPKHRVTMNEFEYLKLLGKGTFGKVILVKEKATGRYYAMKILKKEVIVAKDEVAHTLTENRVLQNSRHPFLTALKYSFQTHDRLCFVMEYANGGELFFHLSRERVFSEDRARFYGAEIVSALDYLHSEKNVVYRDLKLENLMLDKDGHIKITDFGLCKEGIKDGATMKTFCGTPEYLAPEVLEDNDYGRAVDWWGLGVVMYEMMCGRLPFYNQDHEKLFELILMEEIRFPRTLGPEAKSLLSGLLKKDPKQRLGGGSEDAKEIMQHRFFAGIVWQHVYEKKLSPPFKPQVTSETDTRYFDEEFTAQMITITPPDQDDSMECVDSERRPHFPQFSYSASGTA
Outline: as §1

[3] = molecular target: T3, AKT3 (Homo sapiens, UniProt Q9Y243); assay: AKT Kinase Assay (IMAP fluorescent polarisation) vs AKT3
T3 construct: purchased SignalChem
T3 sequence (Q9Y243 whole entry): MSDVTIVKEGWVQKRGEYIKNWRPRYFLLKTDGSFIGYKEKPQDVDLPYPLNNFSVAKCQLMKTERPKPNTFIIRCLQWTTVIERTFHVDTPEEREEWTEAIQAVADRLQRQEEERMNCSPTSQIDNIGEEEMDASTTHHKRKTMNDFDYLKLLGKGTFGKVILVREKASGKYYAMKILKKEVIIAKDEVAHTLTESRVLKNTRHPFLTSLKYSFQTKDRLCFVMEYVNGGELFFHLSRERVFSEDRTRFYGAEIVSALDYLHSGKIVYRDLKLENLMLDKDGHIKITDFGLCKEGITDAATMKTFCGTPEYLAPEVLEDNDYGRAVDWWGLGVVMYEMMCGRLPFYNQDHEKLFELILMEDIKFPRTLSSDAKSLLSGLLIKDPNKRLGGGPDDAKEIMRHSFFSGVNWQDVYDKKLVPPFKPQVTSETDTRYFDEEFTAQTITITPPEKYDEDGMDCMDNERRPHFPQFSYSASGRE
Outline: as §1

T1 sequence (P31751 whole entry): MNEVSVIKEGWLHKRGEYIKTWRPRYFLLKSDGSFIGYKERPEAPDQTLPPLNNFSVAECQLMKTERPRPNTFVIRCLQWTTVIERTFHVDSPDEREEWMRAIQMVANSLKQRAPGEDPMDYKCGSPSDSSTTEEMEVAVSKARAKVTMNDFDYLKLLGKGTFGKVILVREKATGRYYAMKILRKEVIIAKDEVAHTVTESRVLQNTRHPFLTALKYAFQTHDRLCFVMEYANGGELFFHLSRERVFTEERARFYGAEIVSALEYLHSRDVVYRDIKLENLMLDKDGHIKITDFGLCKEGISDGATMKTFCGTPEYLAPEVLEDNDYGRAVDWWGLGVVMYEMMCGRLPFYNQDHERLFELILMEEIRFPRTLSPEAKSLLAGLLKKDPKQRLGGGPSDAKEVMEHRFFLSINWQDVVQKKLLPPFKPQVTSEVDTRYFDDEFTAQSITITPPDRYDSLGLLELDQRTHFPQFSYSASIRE

Row | SMILES | IC50 [1] | IC50 [2] | IC50 [3]
1 | CN1CC(=O)Nc2cc(-c3ccccc3)c(-c3ccc(C4(N)CCC4)cc3)nc21 [Example 72, 6-(4-(1-aminocyclobutyl)phenyl)-4-methyl-7-phenyl-3,4-dihydropyrido[2,3-b]pyrazin-2(1H)-one] | 1000 to 10000 nM | 100 to 1000 nM | > 10000 nM
2 | NC(=O)CN1CCOc2nc(-c3ccc(C4(N)CCC4)cc3)c(-c3ccccc3)cc21 [Example 44, 2-(6-(4-(1-aminocyclobutyl)phenyl)-7-phenyl-2,3-dihydro-1H-pyrido[2,3-b][1,4]oxazin-1-yl)acetamide] | 1000 to 10000 nM | 1000 to 10000 nM | > 10000 nM
3 | Cn1cc(N2C(=O)COc3nc(-c4ccc(C5(N)CCC5)cc4)c(-c4ccccc4)cc32)cn1 [Example 83, 6-(4-(1-aminocyclobutyl)phenyl)-1-(1-methyl-1H-pyrazol-4-yl)-7-phenyl-1H-pyrido[2,3-b][1,4]oxazin-2(3H)-one] | 1000 to 10000 nM | 1000 to 10000 nM | 1000 to 10000 nM
4 | NC1(c2ccc(-c3nc4c(cc3-c3ccccc3)N(c3cccnc3)C(=O)CO4)cc2)CCC1 [Example 75, 6-(4-(1-aminocyclobutyl)phenyl)-7-phenyl-1-(pyridin-3-yl)-1H-pyrido[2,3-b][1,4]oxazin-2(3H)-one] | 1000 to 10000 nM | 1000 to 10000 nM | > 10000 nM
5 | COCC1Oc2nc(-c3ccc(C4(N)CCC4)cc3)c(-c3ccccc3)cc2N(C)C1=O (stereo not drawn) [Example 96, 6-(4-(1-aminocyclobutyl)phenyl)-3-(methoxymethyl)-1-methyl-7-phenyl-1H-pyrido[2,3-b][1,4]oxazin-2(3H)-one] | 1000 to 10000 nM | 100 to 1000 nM | > 10000 nM
6 | CN(C)c1nnc2n1-c1cc(-c3ccccc3)c(-c3ccc(C4(N)CCC4)cc3)nc1OC2 [Example 116, 7-(4-(1-aminocyclobutyl)phenyl)-N,N-dimethyl-8-phenyl-4H-pyrido[2,3-b][1,2,4]triazolo[4,3-d][1,4]oxazin-1-amine] | 1000 to 10000 nM | 1000 to 10000 nM | 1000 to 10000 nM
7 | NC1(c2ccc(-c3nc4c(cc3-c3ccccc3)-n3c(nnc3-c3cccnc3)CO4)cc2)CCC1 [Example 122, 1-(4-(8-phenyl-1-(pyridin-3-yl)-4H-pyrido[2,3-b][1,2,4]triazolo[4,3-d][1,4]oxazin-7-yl)phenyl)cyclobutanamine] | 1000 to 10000 nM | 100 to 1000 nM | 1000 to 10000 nM
8 | CN1C(=O)COc2nc(-c3ccc(C4(N)CC4)cc3)c(-c3ccccc3)cc21 [Example 149, 6-(4-(1-aminocyclopropyl)phenyl)-1-methyl-7-phenyl-1H-pyrido[2,3-b][1,4]oxazin-2(3H)-one] | 1000 to 10000 nM | 100 to 1000 nM | > 10000 nM
9 | CN(C)CCN1C(=O)COc2nc(-c3ccc(C4(N)CCC4)cc3)c(-c3ccccc3)cc21 [Example 34, 6-(4-(1-aminocyclobutyl)phenyl)-1-(2-(dimethylamino)ethyl)-7-phenyl-1H-pyrido[2,3-b][1,4]oxazin-2(3H)-one] | 1000 to 10000 nM | 1000 to 10000 nM | > 10000 nM
10 | NC1(c2ccc(-c3nc4c(cc3-c3ccccc3)-c3n[nH]c(=O)n3CC4)cc2)CCC1 [Example 26, 8-(4-(1-aminocyclobutyl)phenyl)-9-phenyl-5,6-dihydro-[1,2,4]triazolo[3,4][1,6]naphthyridin-3(2H)-one] | 1000 to 10000 nM | ≤ 100 nM | > 10000 nM
11 | NC1(c2ccc(-c3nc4c(cc3-c3ccccc3)C(=O)CCCC4)cc2)CCC1 [Example 20, 2-(4-(1-aminocyclobutyl)phenyl)-3-phenyl-6,7,8,9-tetrahydro-5H-cyclohepta[b]pyridin-5-one] | 1000 to 10000 nM | 100 to 1000 nM | > 10000 nM
12 | NC1(c2ccc(-c3nc4c(cc3-c3ccccc3)-n3c(nnc3-c3ccccc3)CO4)cc2)CCC1 [Example 129, 1-(4-(1,8-diphenyl-4H-pyrido[2,3-b][1,2,4]triazolo[4,3-d][1,4]oxazin-7-yl)phenyl)cyclobutanamine] | 1000 to 10000 nM | 100 to 1000 nM | 1000 to 10000 nM
13 | NC1(c2ccc(-c3nc4c(cc3-c3ccccc3)NC(=O)CCN4)cc2)CCC1 [Example 104, 7-(4-(1-aminocyclobutyl)phenyl)-8-phenyl-4,5-dihydro-1H-pyrido[2,3-b][1,4]diazepin-2(3H)-one] | 1000 to 10000 nM | 100 to 1000 nM | > 10000 nM
14 | CCNC(=O)N1CCOc2nc(-c3ccc(C4(N)CCC4)cc3)c(-c3ccccc3)cc21 [Example 88, 6-(4-(1-aminocyclobutyl)phenyl)-N-ethyl-7-phenyl-2,3-dihydro-1H-pyrido[2,3-b][1,4]oxazine-1-carboxamide] | > 10000 nM | > 10000 nM | > 10000 nM

The remaining lines, values ahead:

Row | IC50 [1] | IC50 [2] | IC50 [3] | SMILES
15 | 1000 to 10000 nM | 1000 to 10000 nM | 1000 to 10000 nM | NC1(c2ccc(-c3nc4c(cc3-c3ccccc3)N(CCF)C(=O)CCN4)cc2)CCC1 [Example 117, 7-(4-(1-aminocyclobutyl)phenyl)-1-(2-fluoroethyl)-8-phenyl-4,5-dihydro-1H-pyrido[2,3-b][1,4]diazepin-2(3H)-one]
16 | 100 to 1000 nM | 100 to 1000 nM | 1000 to 10000 nM | N#CCCCN1C(=O)COc2nc(-c3ccc(C4(N)CCC4)cc3)c(-c3ccccc3)cc21 [Example 64, 4-(6-(4-(1-aminocyclobutyl)phenyl)-2-oxo-7-phenyl-2,3-dihydro-1H-pyrido[2,3-b][1,4]oxazin-1-yl)butanenitrile]
17 | 1000 to 10000 nM | 1000 to 10000 nM | 1000 to 10000 nM | CCc1nnc2n1-c1cc(-c3ccccc3)c(-c3ccc(CN)cc3)nc1OC2 [Example 142, (4-(1-ethyl-8-phenyl-4H-pyrido[2,3-b][1,2,4]triazolo[4,3-d][1,4]oxazin-7-yl)phenyl)methanamine]
18 | ≤ 100 nM | 100 to 1000 nM | 1000 to 10000 nM | CC(C)CN1C(=O)COc2nc(-c3ccc(C4(N)CCC4)cc3)c(-c3ccccc3)cc21 [Example 102, 6-(4-(1-aminocyclobutyl)phenyl)-1-isobutyl-7-phenyl-1H-pyrido[2,3-b][1,4]oxazin-2(3H)-one]
19 | 100 to 1000 nM | 1000 to 10000 nM | 1000 to 10000 nM | NC1(c2ccc(-c3nc4c(cc3-c3ccccc3)-n3c(nn(CC(F)(F)F)c3=O)CO4)cc2)CCC1 [Example 103, 7-(4-(1-aminocyclobutyl)phenyl)-8-phenyl-2-(2,2,2-trifluoroethyl)-2,4-dihydro-1H-pyrido[2,3-b][1,2,4]triazolo[4,3-d][1,4]oxazin-1-one]
20 | 100 to 1000 nM | 1000 to 10000 nM | > 10000 nM | CCN1C(=O)COc2nc(-c3ccc(CN)cc3)c(-c3ccccc3)cc21 [Example 151, 6-(4-(Aminomethyl)phenyl)-1-ethyl-7-phenyl-1H-pyrido[2,3-b][1,4]oxazin-2(3H)-one]
21 | ≤ 100 nM | 100 to 1000 nM | 100 to 1000 nM | NC1(c2ccc(-c3nc4c(cc3-c3ccccc3)N(CC3CCC3)C(=O)CO4)cc2)CCC1 [Example 48, 6-(4-(1-aminocyclobutyl)phenyl)-1-(cyclobutylmethyl)-7-phenyl-1H-pyrido[2,3-b][1,4]oxazin-2(3H)-one]
22 | 100 to 1000 nM | ≤ 100 nM | 100 to 1000 nM | C[C@]1(O)C[C@@](N)(c2ccc(-c3nc4c(cc3-c3ccccc3)-n3c(nnc3C(F)F)CO4)cc2)C1 [Example 128, (1r,3r)-3-amino-3-(4-(1-(difluoromethyl)-8-phenyl-4H-pyrido[2,3-b][1,2,4]triazolo[4,3-d][1,4]oxazin-7-0)phenyl)-1-methylcyclobutanol]
23 | ≤ 100 nM | ≤ 100 nM | 1000 to 10000 nM | C[C@H]1Oc2nc(-c3ccc(C4(N)CCC4)cc3)c(-c3ccccc3)cc2N(CC#N)C1=O [Example 93, (R)-2-(6-(4-(1-aminocyclobutyl)phenyl)-3-methyl-2-oxo-7-phenyl-2,3-dihydro-1H-pyrido[2,3-b][1,4]oxazin-1-yl)acetonitrile]
24 | 100 to 1000 nM | 100 to 1000 nM | 1000 to 10000 nM | CC(C#N)N1C(=O)COc2nc(-c3ccc(C4(N)CCC4)cc3)c(-c3ccccc3)cc21 (stereo not drawn) [Example 54, 2-(6-(4-(1-aminocyclobutyl)phenyl)-2-oxo-7-phenyl-2,3-dihydro-1H-pyrido[2,3-b][1,4]oxazin-1-yl)propanenitrile]
25 | ≤ 100 nM | 100 to 1000 nM | 1000 to 10000 nM | N#CCN1C(=O)COc2nc(-c3ccc(CN)cc3)c(-c3ccccc3)cc21 [Example 135, 2-(6-(4-(aminomethyl)phenyl)-2-oxo-7-phenyl-2,3-dihydro-1H-pyrido[2,3-b][1,4]oxazin-1-yl)acetonitrile]
26 | 100 to 1000 nM | 1000 to 10000 nM | > 10000 nM | N#CCN1CCc2nc(-c3ccc(C4(N)CCC4)cc3)c(-c3ccccc3)cc2C1=O [Example 24, 2-(2-(4-(1-aminocyclobutyl)phenyl)-5-oxo-3-phenyl-7,8-dihydro-1,6-naphthyridin-6(5H)-yl)acetonitrile]
27 | ≤ 100 nM | ≤ 100 nM | 1000 to 10000 nM | CCCN1C(=O)COc2nc(-c3ccc(C4(N)CCC4)cc3)c(-c3ccccc3)cc21 [Example 105, 6-(4-(1-aminocyclobutyl)phenyl)-7-phenyl-1-propyl-1H-pyrido[2,3-b][1,4]oxazin-2(3H)-one]
28 | 100 to 1000 nM | 100 to 1000 nM | 1000 to 10000 nM | Cn1nc2n(c1=O)-c1cc(-c3ccccc3)c(-c3ccc(C4(N)CCC4)cc3)nc1OC2 [Example 99, 7-(4-(1-aminocyclobutyl)phenyl)-2-methyl-8-phenyl-2,4-dihydro-1H-pyrido[2,3-b][1,2,4]triazolo[4,3-d][1,4]oxazin-1-one]
29 | ≤ 100 nM | 100 to 1000 nM | 1000 to 10000 nM | CCN1C(=O)COc2nc(-c3ccc(C4(N)CCC4)cc3)c(-c3ccccc3)cc21 [Example 52, 6-(4-(1-aminocyclobutyl)phenyl)-1-ethyl-7-phenyl-1H-pyrido[2,3-b][1,4]oxazin-2(3H)-one]
